We go through two compounds from article PMC9675441 (JCI Insight, 2022).

The structures appear in SMILES notation.

This experiment has as its target T1, ISG20L2 (interferon-stimulated 20 kDa exonuclease-like 2) (Homo sapiens, UniProt Q9H9L3).
T1 construct: recombinant human ISG20L2 (rISG)
T1 sequence (Q9H9L3 1-353): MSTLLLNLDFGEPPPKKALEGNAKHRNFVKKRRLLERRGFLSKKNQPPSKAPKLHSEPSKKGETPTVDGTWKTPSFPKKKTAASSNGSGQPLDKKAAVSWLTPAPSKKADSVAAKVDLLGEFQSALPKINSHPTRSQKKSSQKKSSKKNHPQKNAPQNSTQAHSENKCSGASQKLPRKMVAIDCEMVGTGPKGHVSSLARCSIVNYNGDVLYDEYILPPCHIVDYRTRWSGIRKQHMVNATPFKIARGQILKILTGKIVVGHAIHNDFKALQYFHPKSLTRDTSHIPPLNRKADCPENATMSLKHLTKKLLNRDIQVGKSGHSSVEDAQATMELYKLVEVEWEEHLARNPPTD
The experiment is described as follows: SPR (Biacore X100, ISG20L2 immobilized on CM5 chip). The format is binding. Background: In SPR one partner is held on a chip, and binding of the other changes the refractive index at the surface.

In turn, `CC(C)C[C@H](NC(=O)[C@H](Cc1ccccc1)NC(=O)c1cnccn1)B(O)O` [BTZ, bortezomib] came in with a Kd of 26.7 µM.

In turn, `CC(C)C[C@H](NC(=O)[C@H](CCc1ccccc1)NC(=O)CN1CCOCC1)C(=O)N[C@@H](Cc1ccccc1)C(=O)N[C@@H](CC(C)C)C(=O)[C@@]1(C)CO1` [CFZ, carfilzomib] showed a Kd of 8.71 µM.

As a reminder, the Kd is the constant that tells how readily two partners part at equilibrium. High values mean a looser complex, low ones a tighter complex.
